According to patent US8163909B2, “Substituted hydroxyethyl amine compounds as beta-secretase modulators and methods of use” (Amgen Inc., priority 2007, dated 2012):
Read-outs that look alike come from different tables or passages of the source.

Key:
[1] = Microsomal stability assay, human liver microsomes;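 note: pooled human liver microsomes at 0.25 mg/mL with 1 µM compound and NADPH at 37 °C, pH 7.4, for 30 min, unchanged parent quantified by LC-MS/MS against the 0 min sample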
[2] = target: Beta Secretase enzyme (BACE) (Homo sapiens, UniProt P56817); assay: In vitro enzymatic BACE FRET (fluorescence resonance energy transfer) assay; type: biochemical;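 note: fluorescence read after 1 h with 50 nM quenched peptide substrate spanning the BACE cleavage site, in pH 4.2 acetate buffer containing 10% DMSO and nonionic detergent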
[3] = target: CYP3A4 (CYP3A) (Homo sapiens, UniProt P08684); assay: in vitro; conditions: microsomes, pH 7.4;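 note: inhibition of CYP3A-mediated 1-hydroxymidazolam formation after 10 min incubation with NADPH, quantified by HPLC MS relative to metabolite produced without test compound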
[4] = target: CYP2D6 (Homo sapiens, UniProt P10635); assay: CYP2D6 inhibition assay (bufuralol, pooled human liver microsomes)
[5] = test system: Aβ40 in conditioned medium of cells stably expressing Amyloid Precursor Protein (APP); assay: In vitro BACE cell-based assay (Aβ40 in conditioned medium, sandwich ELISA);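 note: compounds added as a dilution series, secreted peptide quantified by europium time-resolved fluorescence readout, potency fitted from percent of control versus compound concentration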
[6] = Microsomal stability assay, rat liver microsomes;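 note: rat liver microsomes (0.25 mg/mL) with about 1 µM compound plus 1 mM NADPH, pH 7.4, 37 °C for 30 min, parent left measured by LC-MS/MS against 0 min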
[7] = BACE enzyme assay, IC50's in uM, read-out: BACE1 FRET assay
[8] = 2D6 IC50 (uM), CYP enzyme inhibition
[9] = Homo sapiens, HEK293, HEK cell-based assay, IC50's in uM, read-out: HEK cell assay
[10] = BACE enzyme assay, read-out: BACE1 FRET assay
[11] = Homo sapiens, HEK293, HEK cells, read-out: HEK cell assay
[12] = Table 2, read-out: BACE1 FRET assay
[13] = 2D6 IC50, CYP enzyme inhibition
[14] = Homo sapiens, HEK293, Table 2, HEK cells, read-out: HEK cell assay
[15] = BACE enzyme assay IC50, read-out: BACE1 FRET assay
[16] = 2D6 IC50 (uM), CYP2D6 inhibition
[17] = Homo sapiens, HEK293, HEK cell-based assay IC50, read-out: HEK cell assay

Sequence of CYP3A4 (CYP3A) (P08684 2-503): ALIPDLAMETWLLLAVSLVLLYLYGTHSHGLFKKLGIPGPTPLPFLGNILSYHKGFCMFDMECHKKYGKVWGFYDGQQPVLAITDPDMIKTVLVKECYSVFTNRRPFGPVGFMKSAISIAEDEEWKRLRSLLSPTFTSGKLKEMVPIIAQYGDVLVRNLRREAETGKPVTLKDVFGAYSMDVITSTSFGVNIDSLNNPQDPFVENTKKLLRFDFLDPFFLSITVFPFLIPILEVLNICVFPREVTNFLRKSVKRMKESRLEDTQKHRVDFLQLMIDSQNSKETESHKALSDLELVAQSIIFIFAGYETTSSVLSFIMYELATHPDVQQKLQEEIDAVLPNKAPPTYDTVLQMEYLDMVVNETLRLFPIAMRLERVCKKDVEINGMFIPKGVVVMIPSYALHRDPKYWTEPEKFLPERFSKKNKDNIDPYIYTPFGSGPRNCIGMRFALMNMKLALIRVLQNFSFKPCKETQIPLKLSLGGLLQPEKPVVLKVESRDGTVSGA
Sequence of CYP2D6 (P10635 whole entry): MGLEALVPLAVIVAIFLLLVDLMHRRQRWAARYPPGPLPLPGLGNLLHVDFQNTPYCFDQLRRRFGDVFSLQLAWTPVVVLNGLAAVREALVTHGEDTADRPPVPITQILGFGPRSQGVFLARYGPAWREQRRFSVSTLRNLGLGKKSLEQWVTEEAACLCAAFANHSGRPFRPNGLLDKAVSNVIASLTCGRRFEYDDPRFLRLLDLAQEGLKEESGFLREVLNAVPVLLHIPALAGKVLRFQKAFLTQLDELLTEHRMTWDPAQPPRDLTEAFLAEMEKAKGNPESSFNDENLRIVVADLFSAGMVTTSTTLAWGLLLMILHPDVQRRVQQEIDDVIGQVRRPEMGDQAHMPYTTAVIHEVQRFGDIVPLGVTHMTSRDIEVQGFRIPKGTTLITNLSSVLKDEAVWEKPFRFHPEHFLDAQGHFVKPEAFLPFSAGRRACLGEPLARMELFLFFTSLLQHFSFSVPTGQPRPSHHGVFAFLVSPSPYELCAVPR
Sequence of Beta Secretase enzyme (BACE) (P56817 46-501): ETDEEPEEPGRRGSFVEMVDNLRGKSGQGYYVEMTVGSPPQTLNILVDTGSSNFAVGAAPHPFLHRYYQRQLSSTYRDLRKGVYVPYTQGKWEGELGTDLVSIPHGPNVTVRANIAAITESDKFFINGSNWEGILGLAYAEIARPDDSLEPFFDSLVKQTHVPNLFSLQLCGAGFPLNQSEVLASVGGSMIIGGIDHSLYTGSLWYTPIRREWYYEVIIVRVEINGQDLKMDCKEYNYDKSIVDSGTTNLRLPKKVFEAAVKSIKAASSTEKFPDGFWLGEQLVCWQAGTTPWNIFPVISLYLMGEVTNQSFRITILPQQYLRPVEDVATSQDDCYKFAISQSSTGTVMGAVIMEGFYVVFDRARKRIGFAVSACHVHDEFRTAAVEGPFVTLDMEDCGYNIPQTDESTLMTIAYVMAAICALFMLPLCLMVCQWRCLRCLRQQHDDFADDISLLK

SMILES | HLM ([1]; human liver microsomal data) | IC50 [3] | IC50 [4, 8] | RLM ([6]; rat liver microsomal data) | IC50 [2, 10] | IC50 [5, 11] | other results
COCC(=O)N[C@@H](Cc1ccc(-c2nccs2)c(F)c1)[C@H](O)CN[C@H]1CC2(CCC2)Oc2ncc(CC(C)C)cc21 [compound 787] | 58 µL/min/mg | 200 nM | 0.8 µM | 79 µL/min/mg |  |  | IC50 [2, 7]: 0.11 µM; IC50 [5, 9]: 0.451 µM
CO[C@H](C)C(=O)N[C@@H](Cc1cccc(F)c1)[C@H](O)CN[C@H]1CC2(CCC2)Oc2c(-c3cscn3)cc(CC(C)C)cc21 [compound 524] | 492 µL/min/mg | 500 nM | 7.5 µM | 472 µL/min/mg | 0.008 µM | 0.065 µM | 
CNc1cc(CC(C)(C)C)cc2c1OC1(CCC1)C[C@@H]2NC[C@@H](O)[C@H](Cc1cc(F)cc(F)c1)NC(=O)COC [compound 479] | 167 µL/min/mg | 1800 nM |  | 329 µL/min/mg |  |  | IC50 [2, 12]: 0.011 µM; IC50 [4, 13]: 6.4 µM; IC50 [5, 14]: 0.017 µM
C[C@@H](O)C(=O)N[C@@H](Cc1ccc(F)cc1)[C@H](O)CN[C@H]1CC2(CCC2)Oc2ncc(CC(C)(C)C)cc21 [compound 442] | 117.333 µL/min/mg | 750 nM |  | 150.333 µL/min/mg |  |  | IC50 [2, 12]: 0.013 µM; IC50 [4, 13]: 6.75 µM; IC50 [5, 14]: 0.016 µM
CC(C)(C)Cc1cnc2c(c1)[C@@H](NC[C@@H](O)[C@H](Cc1ccc(F)cc1)NC(=O)[C@H]1CCO1)CC1(CCC1)O2 [Example 440, (2R)—N-((1S,2R)-3-(((4′S)-6′-(2,2-dimethylpropyl)-3′,4′-dihydrospiro[cyclobutane-1,2′-pyrano[2,3-b]pyridin]-4′-yl)amino)-1-((4-fluorophenyl)methyl)-2-hydroxypropyl)-2-oxetanecarboxamide] | 209 µL/min/mg | 700 nM | 8.2 µM | 242 µL/min/mg | 0.016 µM | 0.035 µM | 
CC(=O)N[C@@H](Cc1cccc(-c2ccncc2)c1)[C@H](O)CN[C@H]1CC2(CCC2)Oc2ccc(CC(C)(C)C)cc21 [compound 618] |  | 160 nM |  |  |  |  | HLM ([1]; human liver microsomes): 413 µL/min/mg; IC50 ([2]; read-out: BACE1 FRET assay (IC50)): 0.031 µM; IC50 ([4]; 2D6 IC50, CYP2D6 inhibition): 0.3 µM; IC50 ([5]; Homo sapiens, HEK293, HEK cells, read-out: HEK cell assay (IC50)): 0.038 µM; RLM ([6]; rat liver microsomes): 344 µL/min/mg
CC(=O)CC(=O)N[C@@H](Cc1cccc(F)c1)[C@H](O)CN[C@H]1CC2(CCC2)Oc2ncc(CC(C)(C)C)cc21 [compound 466] | 296 µL/min/mg | 1200 nM |  | 165 µL/min/mg |  |  | IC50 [2, 12]: 0.004 µM; IC50 [4, 13]: 8.9 µM; IC50 [5, 14]: 0.008 µM
CO[C@H](C)C(=O)N[C@@H](Cc1cc(F)cc(Cl)c1)[C@H](O)CN[C@H]1CC2(CCC2)Oc2cnc(CC(C)(C)F)cc21 [compound 719] |  | 400 nM |  |  |  |  | HLM ([1]; human liver microsomes): 515 µL/min/mg; IC50 [2, 15]: 0.024 µM; IC50 [4, 16]: 2.4 µM; IC50 [5, 17]: 0.13 µM; RLM ([6]; rat liver microsomes): 775 µL/min/mg
C#Cc1cccc(C[C@H](NC(=O)COC)[C@H](O)CN[C@H]2CC3(CCC3)Oc3ncc(CC(C)(C)C(F)(F)F)cc32)c1 [compound 838] | 34 µL/min/mg | 100 nM | 2 µM | 54 µL/min/mg |  |  | IC50 [2, 7]: 0.01 µM; IC50 [5, 9]: 0.028 µM
CO[C@H](C)C(=O)N[C@@H](Cc1ccc(F)c(-c2nccs2)c1)[C@H](O)CN[C@H]1CC2(CCC2)Oc2ncc(CC(C)C)cc21 [compound 768, (2R)-N-((1S,2R)-1-(4-fluoro-3-(1,3-thiazol-2-yl)benzyl)-2-hydroxy-3-(((4′S)-6′-(2-methylpropyl)-3′,4′-dihydrospiro[cyclobutane-1,2′-pyrano[2,3-b]pyridin]-4′-yl)amino)propyl)-2-methoxypropanamide] | 39 µL/min/mg | 100 nM | 0.4 µM | 70 µL/min/mg |  |  | IC50 [2, 7]: 0.022 µM; IC50 [5, 9]: 0.105 µM
CNc1nc(CC(C)C)cc2c1OC1(CCC1)C[C@@H]2NC[C@@H](O)[C@H](Cc1ccc2c(c1)OCO2)NC(=O)COC [compound 681] |  | 800 nM |  |  |  |  | HLM ([1]; human liver microsomes): 197 µL/min/mg; IC50 [2, 15]: 0.064 µM; IC50 [4, 16]: 9.2 µM; IC50 [5, 17]: 0.014 µM; RLM ([6]; rat liver microsomes): 392 µL/min/mg
COCC(=O)N[C@@H](Cc1cccc(F)c1)[C@H](O)CN[C@H]1CC2(CCC2)Oc2ccc(C[C@@H](C)F)cc21 [compound 559] | 706 µL/min/mg | 7100 nM | 1.1 µM | 829 µL/min/mg | 0.027 µM | 0.038 µM | 
COCC(=O)N[C@@H](Cc1cccc(-c2nccs2)c1)[C@H](O)CN[C@H]1CC2(CCC2)Oc2ncc(CC(C)(C)F)cc21 [compound 813, N-((1S,2R)-3-(((4′S)-6′-(2-fluoro-2-methylpropyl)-3′,4′-dihydrospiro[cyclobutane-1,2′-pyrano[2,3-b]pyridin]-4′-yl)amino)-2-hydroxy-1-(3-(1,3-thiazol-2-yl)benzyl)propyl)-2-methoxyacetamide] | 32 µL/min/mg | 500 nM | 1.1 µM | 27 µL/min/mg |  |  | IC50 [2, 7]: 0.006 µM; IC50 [5, 9]: 0.014 µM
CC(=O)N[C@@H](Cc1cccc(-c2ncc[nH]2)c1)[C@H](O)CN[C@H]1CC2(CCC2)Oc2ncc(CC(C)(C)C)cc21 [Example 429, N-((2S,3R)-1-(3-(1H-imidazol-2-yl)phenyl)-4-((S)-2,2-spirocyclobutyl-6-neopentyl-3,4-dihydro-2H-pyrano[2,3-b]pyridin-4-ylamino)-3-hydroxybutan-2-yl)acetamide] |  | 1300 nM |  |  |  |  | HLM ([1]; human liver microsomes): 88 µL/min/mg; IC50 [2, 15]: 3.59 µM; IC50 [4, 16]: 0.5 µM; IC50 [5, 17]: 0.6 µM; RLM ([6]; rat liver microsomes): 37 µL/min/mg
COCC(=O)N[C@@H](Cc1ccc2c(c1)OCO2)[C@H](O)CN[C@H]1CC2(CCC2)Oc2ccc(C[C@H](C)F)cc21 [compound 557] | 193 µL/min/mg | 300 nM | 0.5 µM | 344 µL/min/mg | 3.79 µM | > 10 µM | 
CC(C)(C)Cc1cnc2c(c1)[C@@H](NC[C@@H](O)[C@H](Cc1ccc3c(c1)OCO3)NC(=O)[C@H]1CCC(=O)C1)CC1(CCC1)O2 [compound 450] | 76 µL/min/mg | 400 nM |  | 170 µL/min/mg |  |  | IC50 [2, 12]: 0.15 µM; IC50 [4, 13]: 8.6 µM; IC50 [5, 14]: 0.183 µM
CO[C@@H](C)C(=O)N[C@@H](Cc1ccc2c(c1)OCO2)[C@H](O)CN[C@H]1CC2(CCC2)Oc2ccc(C[C@@H](C)F)cc21 [compound 499] | 156 µL/min/mg | 300 nM | 0.7 µM | 213 µL/min/mg | 1.36 µM | 0.473 µM | 
CC(C)(C)Cc1cnc2c(c1)[C@@H](NC[C@@H](O)[C@H](Cc1ccc(F)cc1)NC(=O)[C@H]1CN(Cc3ccccc3)CCO1)CC1(CCC1)O2 [compound 717] |  | 200 nM |  |  |  |  | HLM ([1]; human liver microsomes): 775 µL/min/mg; IC50 [2, 15]: 0.013 µM; IC50 [4, 16]: 3.6 µM; IC50 [5, 17]: 0.011 µM; RLM ([6]; rat liver microsomes): 298 µL/min/mg
CO[C@H](C)C(=O)N[C@@H](Cc1ccncc1)[C@H](O)CN[C@H]1CC2(CCC2)Oc2ncc(CC(C)(C)C)cc21 [compound 534] | 178 µL/min/mg | 500 nM | 3.6 µM | 113 µL/min/mg | 0.023 µM | 0.014 µM | 
COCC(=O)N[C@@H](Cc1ccc2c(c1)OCO2)[C@H](O)CN[C@H]1CC2(CCC2)Oc2ccc(C[C@@H](C)F)cc21 [compound 498] | 119 µL/min/mg | 500 nM | 0.7 µM | 206 µL/min/mg | 0.268 µM |  | IC50 ([5]; HEK cells, read-out: HEK cell assay): 0.377 µM
